Measured values published in US8329717B2, “Pyrimidine derivatives and their use for controlling undesired plant growth” (Bayer Cropscience AG, priority 2008, dated 2012).

Key:
Alopecurus myosuroides = test: Pre-emergence herbicidal effect; type: in vivo; settings: Dosage 320 g/ha, visual scoring after 3 weeks vs untreated controls, 100% = plants have died
Excerpt: (§1) 1. Pre-Emergence Herbicidal Effect and Crop Plant Compatibility Seeds of monocotyledonous or dicotyledonous weed plants or crop plants are planted in wood-fiber pots in sandy loam and covered with earth. The compounds according to the invention, formulated in the form of wettable powders (WP) or as emulsion concentrates (EC), are then applied as aqueous suspension or emulsion at a water application rate of 600 to 800 l/ha (converted) with the addition of 0.2% of wetting agent to the surface of the covering earth. The dosage of the compounds according to the invention is given in grams per hectare. Following the treatment, the pots are placed in a greenhouse and kept under good growth conditions for the test plants. The visual scoring of the damage on the test plants is carried out after an experiment time of 3 weeks in comparison with untreated controls (herbicidal effect in percent (%): 100% effect=plants have died, 0% effect=as control plants). The following abbreviations are used in the tables below: [table]

Polygonum convolvulus = test: Pre-emergence herbicidal effect; type: in vivo; settings: Dosage 320 g/ha, visual scoring after 3 weeks vs untreated controls, 100% = plants have died
Excerpt: as §1

Echinochloa crus-galli [1] = test: Pre-emergence herbicidal effect; type: in vivo; settings: Dosage 320 g/ha, visual scoring after 3 weeks vs untreated controls, 100% = plants have died
Excerpt: as §1

Lolium multiflorum [2] = test: Pre-emergence herbicidal effect; type: in vivo; settings: Dosage 320 g/ha, visual scoring after 3 weeks vs untreated controls, 100% = plants have died
Excerpt: as §1

Viola tricolor [3] = test: Pre-emergence herbicidal effect; type: in vivo; settings: Dosage 320 g/ha, visual scoring after 3 weeks vs untreated controls, 100% = plants have died
Excerpt: as §1

Matricaria inodora = test: Pre-emergence herbicidal effect; type: in vivo; settings: Dosage 320 g/ha, visual scoring after 3 weeks vs untreated controls, 100% = plants have died
Excerpt: as §1

Amaranthus retroflexus [4] = test: Pre-emergence herbicidal effect; type: in vivo; settings: Dosage 320 g/ha, visual scoring after 3 weeks vs untreated controls, 100% = plants have died
Excerpt: as §1

Veronica persica [5] = test: Pre-emergence herbicidal effect; type: in vivo; settings: Dosage 320 g/ha, visual scoring after 3 weeks vs untreated controls, 100% = plants have died
Excerpt: as §1

Setaria viridis [6] = test: Pre-emergence herbicidal effect; type: in vivo; settings: Dosage 320 g/ha, visual scoring after 3 weeks vs untreated controls, 100% = plants have died
Excerpt: as §1

Stellaria media [7] = test: Pre-emergence herbicidal effect; type: in vivo; settings: Dosage 320 g/ha, visual scoring after 3 weeks vs untreated controls, 100% = plants have died
Excerpt: as §1

[8] = logp (HCOOH), chemicophysical data; settings: HCOOH
Avena fatua = test: Pre-emergence herbicidal effect; type: in vivo; settings: Dosage 320 g/ha, visual scoring after 3 weeks vs untreated controls, 100% = plants have died
Excerpt: as §1

Viola tricolor [9] = test: Post-emergence herbicidal effect; type: in vivo; settings: Dosage 320 g/ha, one-leaf stage, visual scoring after ca. 3 weeks vs untreated controls, 100% = plants have died
Description: (§2) The following abbreviations are used in the tables below: [table] 2. Post-Emergence Herbicidal Effect and Crop Plant Compatibility Seeds of monocotyledonous or dicotyledonous weed plants or crop plants are planted in wood-fiber pots in sandy loam, covered with earth and grown in a greenhouse under good growth conditions. 2 to 3 weeks after sowing, the test plants are treated in the one-leaf stage. The compounds according to the invention, formulated in the form of wettable powders (WP) or as emulsion concentrates (EC), are then sprayed onto the green plant parts as aqueous suspension or emulsion at a water application rate of 600 to 800 l/ha (converted) with the addition of 0.2% of wetting agent. The dosage of the compounds according to the invention is given in grams per hectare. After ca. 3 weeks' standing time of the test plants in the greenhouse under optimum growth conditions, the effect of the preparations is scored visually in comparison with untreated controls (herbicidal effect in percent (%): 100% effect=plants have died, 0% effect=as control plants).

Amaranthus retroflexus [10] = test: Post-emergence herbicidal effect; type: in vivo; settings: Dosage 320 g/ha, one-leaf stage, visual scoring after ca. 3 weeks vs untreated controls, 100% = plants have died
Description: as §2

Veronica persica [11] = test: Post-emergence herbicidal effect; type: in vivo; settings: Dosage 320 g/ha, one-leaf stage, visual scoring after ca. 3 weeks vs untreated controls, 100% = plants have died
Description: as §2

Setaria viridis [12] = test: Post-emergence herbicidal effect; type: in vivo; settings: Dosage 320 g/ha, one-leaf stage, visual scoring after ca. 3 weeks vs untreated controls, 100% = plants have died
Description: as §2

Abutilon theophrasti = test: Post-emergence herbicidal effect; type: in vivo; settings: Dosage 320 g/ha, one-leaf stage, visual scoring after ca. 3 weeks vs untreated controls, 100% = plants have died
Description: as §2

Stellaria media [13] = test: Post-emergence herbicidal effect; type: in vivo; settings: Dosage 320 g/ha, one-leaf stage, visual scoring after ca. 3 weeks vs untreated controls, 100% = plants have died
Description: as §2

Echinochloa crus-galli [14] = test: Post-emergence herbicidal effect; type: in vivo; settings: Dosage 320 g/ha, one-leaf stage, visual scoring after ca. 3 weeks vs untreated controls, 100% = plants have died
Description: as §2

Lolium multiflorum [15] = test: Post-emergence herbicidal effect; type: in vivo; settings: Dosage 320 g/ha, one-leaf stage, visual scoring after ca. 3 weeks vs untreated controls, 100% = plants have died
Description: as §2

Structure (SMILES): Cc1nc(NC2CCOc3ccccc32)nc(N)c1[N+](=O)[O-] (racemic) [Example 1.121]
- Pre-emergence herbicidal effect ALOMY (Alopecurus myosuroides): 80%
- Pre-emergence herbicidal effect POLCO (Polygonum convolvulus): 100%
- Pre-emergence herbicidal effect ECHCG (Echinochloa crus-galli [1]): 100%
- Pre-emergence herbicidal effect LOLMU (Lolium multiflorum [2]): 90%
- Pre-emergence herbicidal effect VIOTR (Viola tricolor [3]): 100%
- Pre-emergence herbicidal effect MATIN (Matricaria inodora): 100%
- Pre-emergence herbicidal effect AMARE (Amaranthus retroflexus [4]): 100%
- Pre-emergence herbicidal effect VERPE (Veronica persica [5]): 100%
- Pre-emergence herbicidal effect SETVI (Setaria viridis [6]): 100%
- Pre-emergence herbicidal effect STEME (Stellaria media [7]): 100%

Structure (SMILES): Cc1nc(NC2CCCc3ccccc32)nc(N)c1[N+](=O)[O-] (racemic) [Example 1.124]
- Pre-emergence herbicidal effect POLCO (Polygonum convolvulus): 90%
- Pre-emergence herbicidal effect VIOTR (Viola tricolor [3]): 100%
- Pre-emergence herbicidal effect MATIN (Matricaria inodora): 90%
- Pre-emergence herbicidal effect AMARE (Amaranthus retroflexus [4]): 100%
- Pre-emergence herbicidal effect VERPE (Veronica persica [5]): 100%
- Pre-emergence herbicidal effect SETVI (Setaria viridis [6]): 80%
- Pre-emergence herbicidal effect STEME (Stellaria media [7]): 100%

Structure (SMILES): Cc1nc(NC2c3ccccc3CC2C)nc(N)c1[N+](=O)[O-] (racemic) [Example 1.125]
- Pre-emergence herbicidal effect ALOMY (Alopecurus myosuroides): 80%
- Pre-emergence herbicidal effect POLCO (Polygonum convolvulus): 90%
- Pre-emergence herbicidal effect ECHCG (Echinochloa crus-galli [1]): 90%
- Pre-emergence herbicidal effect VIOTR (Viola tricolor [3]): 100%
- Pre-emergence herbicidal effect MATIN (Matricaria inodora): 95%
- Pre-emergence herbicidal effect AMARE (Amaranthus retroflexus [4]): 90%
- Pre-emergence herbicidal effect VERPE (Veronica persica [5]): 100%
- Pre-emergence herbicidal effect SETVI (Setaria viridis [6]): 90%
- Pre-emergence herbicidal effect STEME (Stellaria media [7]): 100%

Structure (SMILES): Cc1ccc2c(c1)[C@H](Nc1nc(C)c(I)c(N)n1)[C@@H](C)C2 [Example 1.46]
- logp (HCOOH) [8]: wax-like; logp (HCOOH): 1.39; 1H-NMR (CDCl3, 400 MHZ, δ in ppm): 1.25 (d, 3H, CH3);
- Pre-emergence herbicidal effect ALOMY (Alopecurus myosuroides): 80%
- Pre-emergence herbicidal effect POLCO (Polygonum convolvulus): 100%
- Pre-emergence herbicidal effect LOLMU (Lolium multiflorum [2]): 100%
- Pre-emergence herbicidal effect VIOTR (Viola tricolor [3]): 100%
- Pre-emergence herbicidal effect MATIN (Matricaria inodora): 100%
- Pre-emergence herbicidal effect AMARE (Amaranthus retroflexus [4]): 100%
- Pre-emergence herbicidal effect AVEFA (Avena fatua): 80%
- Pre-emergence herbicidal effect VERPE (Veronica persica [5]): 100%
- Pre-emergence herbicidal effect SETVI (Setaria viridis [6]): 100%
- Pre-emergence herbicidal effect STEME (Stellaria media [7]): 100%
- Post-emergence herbicidal effect VIOTR (Viola tricolor [9]): 90%
- Post-emergence herbicidal effect AMARE (Amaranthus retroflexus [10]): 100%
- Post-emergence herbicidal effect VERPE (Veronica persica [11]): 90%
- Post-emergence herbicidal effect SETVI (Setaria viridis [12]): 90%
- Post-emergence herbicidal effect ABUTH (Abutilon theophrasti): 100%
- Post-emergence herbicidal effect STEME (Stellaria media [13]): 90%

Structure (SMILES): CCc1nc(N[C@H]2c3cc(C)ccc3C[C@@H]2C)nc(N)c1C#N [Example 1.61]
- logp (HCOOH) [8]: solid, m.p.: 126.9° C.; logp (HCOOH): 3.07; 1H-NMR (CDCl3, 400 MHZ, δ in ppm): 1.25
- Pre-emergence herbicidal effect ALOMY (Alopecurus myosuroides): 100%
- Pre-emergence herbicidal effect POLCO (Polygonum convolvulus): 100%
- Pre-emergence herbicidal effect ECHCG (Echinochloa crus-galli [1]): 100%
- Pre-emergence herbicidal effect VIOTR (Viola tricolor [3]): 100%
- Pre-emergence herbicidal effect MATIN (Matricaria inodora): 90%
- Pre-emergence herbicidal effect AMARE (Amaranthus retroflexus [4]): 100%
- Pre-emergence herbicidal effect AVEFA (Avena fatua): 90%
- Pre-emergence herbicidal effect VERPE (Veronica persica [5]): 100%
- Pre-emergence herbicidal effect SETVI (Setaria viridis [6]): 90%
- Pre-emergence herbicidal effect STEME (Stellaria media [7]): 100%
- Post-emergence herbicidal effect ECHCG (Echinochloa crus-galli [14]): 90%
- Post-emergence herbicidal effect VIOTR (Viola tricolor [9]): 80%
- Post-emergence herbicidal effect VERPE (Veronica persica [11]): 90%
- Post-emergence herbicidal effect ABUTH (Abutilon theophrasti): 80%
- Post-emergence herbicidal effect STEME (Stellaria media [13]): 90%

Structure (SMILES): CCc1nc(N[C@@H]2CCCc3ccccc32)nc(N)c1C#N [Example 1.63]
- logp (HCOOH) [8]: wax-like; logp (HCOOH): 2.49; 1H-NMR (CDCl3, 400 MHZ, δ in ppm): 1.25 (t, 3H, CH3);
- Pre-emergence herbicidal effect ALOMY (Alopecurus myosuroides): 100%
- Pre-emergence herbicidal effect POLCO (Polygonum convolvulus): 100%
- Pre-emergence herbicidal effect ECHCG (Echinochloa crus-galli [1]): 100%
- Pre-emergence herbicidal effect VIOTR (Viola tricolor [3]): 100%
- Pre-emergence herbicidal effect MATIN (Matricaria inodora): 100%
- Pre-emergence herbicidal effect AMARE (Amaranthus retroflexus [4]): 90%
- Pre-emergence herbicidal effect AVEFA (Avena fatua): 80%
- Pre-emergence herbicidal effect VERPE (Veronica persica [5]): 100%
- Pre-emergence herbicidal effect SETVI (Setaria viridis [6]): 100%
- Pre-emergence herbicidal effect STEME (Stellaria media [7]): 100%
- Post-emergence herbicidal effect ECHCG (Echinochloa crus-galli [14]): 80%
- Post-emergence herbicidal effect VERPE (Veronica persica [11]): 80%
- Post-emergence herbicidal effect SETVI (Setaria viridis [12]): 80%
- Post-emergence herbicidal effect STEME (Stellaria media [13]): 80%

Structure (SMILES): Cc1ccc2c(c1)[C@H](Nc1nc(N)c(C#N)c(C3(c4ccc(Cl)cc4Cl)CC3)n1)[C@@H](C)C2 [Example 1.94]
- logp (HCOOH) [8]: wax-like; logp (HCOOH): 5.55; 1H-NMR (CDCl3, 400 MHZ, δ in ppm): 1.25 (d, 3H, CH3);
- Pre-emergence herbicidal effect ALOMY (Alopecurus myosuroides): 80%
- Pre-emergence herbicidal effect POLCO (Polygonum convolvulus): 80%
- Pre-emergence herbicidal effect ECHCG (Echinochloa crus-galli [1]): 90%
- Pre-emergence herbicidal effect LOLMU (Lolium multiflorum [2]): 80%
- Pre-emergence herbicidal effect VIOTR (Viola tricolor [3]): 100%
- Pre-emergence herbicidal effect MATIN (Matricaria inodora): 85%
- Pre-emergence herbicidal effect AMARE (Amaranthus retroflexus [4]): 90%
- Pre-emergence herbicidal effect AVEFA (Avena fatua): 80%
- Pre-emergence herbicidal effect VERPE (Veronica persica [5]): 100%
- Pre-emergence herbicidal effect SETVI (Setaria viridis [6]): 90%
- Pre-emergence herbicidal effect STEME (Stellaria media [7]): 100%

Structure (SMILES): Nc1nc(N[C@@H]2CCCc3ccccc32)ncc1Br [Example 1.97]
- Pre-emergence herbicidal effect ALOMY (Alopecurus myosuroides): 80%
- Pre-emergence herbicidal effect ECHCG (Echinochloa crus-galli [1]): 100%
- Pre-emergence herbicidal effect LOLMU (Lolium multiflorum [2]): 100%
- Pre-emergence herbicidal effect VIOTR (Viola tricolor [3]): 100%
- Pre-emergence herbicidal effect MATIN (Matricaria inodora): 100%
- Pre-emergence herbicidal effect AMARE (Amaranthus retroflexus [4]): 100%
- Pre-emergence herbicidal effect VERPE (Veronica persica [5]): 100%
- Pre-emergence herbicidal effect SETVI (Setaria viridis [6]): 100%
- Pre-emergence herbicidal effect STEME (Stellaria media [7]): 100%
- Post-emergence herbicidal effect ECHCG (Echinochloa crus-galli [14]): 80%
- Post-emergence herbicidal effect LOLMU (Lolium multiflorum [15]): 80%
- Post-emergence herbicidal effect AMARE (Amaranthus retroflexus [10]): 80%
- Post-emergence herbicidal effect VERPE (Veronica persica [11]): 80%
- Post-emergence herbicidal effect SETVI (Setaria viridis [12]): 80%
- Post-emergence herbicidal effect STEME (Stellaria media [13]): 80%
